Structures are written as SMILES. Active and inactive are the calls of the source. The rule behind the calls is not given here.

For the assay, the target named is Peptidyl-prolyl cis-trans isomerase FKBP1A (Homo sapiens) (UniProt P62942). Nature of the assay: FKBP12 binders, biophysical, NMR detection (AID 608). The settings on record: NMR binding, purified FKBP12.
Chain of Peptidyl-prolyl cis-trans isomerase FKBP1A (Homo sapiens) (P62942 whole entry, looked up): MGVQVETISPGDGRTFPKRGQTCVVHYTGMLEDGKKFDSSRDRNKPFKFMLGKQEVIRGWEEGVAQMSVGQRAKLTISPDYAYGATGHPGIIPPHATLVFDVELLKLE
On to `O=C(O)C1COc2ccccc2O1` (stereo unspecified), for which the Kd was > 4 mM (inactive).
With `O=C(CC1CCCCC1)N1CCN(c2ccccn2)CC1`, the Kd is > 4 mM (inactive).
The result for `O=C(O)c1cc2ccccc2s1` reads > 4 mM (inactive).
On to `C[C@H]1[C@H]2CCC3C4CC=C5C[C@@H](N(C)C)CC[C@]5(C)C4CC[C@@]32CN1C` (stereo partly specified), for which the Kd was > 4 mM (inactive).
Regarding `CN1CCN(C2CCSC2)CC1` (stereo unspecified), the Kd is > 4 mM (inactive).
For the compound `Nc1nc(-c2cccnc2)nn1C(=O)Cc1ccccc1`, the Kd is > 4 mM (inactive).
The result for `CC[C@@H]1[C@@H](O)N2C3C[C@H]1C1C(O)[C@]4(C[C@@H]12)c1ccccc1N(C)[C@@H]34` (stereo partly specified) reads > 4 mM (inactive); that for `OCCN1CCN(C(=S)c2ccc(Cl)cc2)CC1`, > 4 mM (inactive).
Turning to `CN1CN(Cc2ccccc2)CN/C1=N/[N+](=O)[O-]`, the Kd is > 4 mM (inactive).
`COc1cc(OC)c2c(c1Cl)OC1(C2=O)C(O)=CC(=O)CC1C` (stereo unspecified): the Kd is > 4 mM (inactive).
The result for `Cc1ccn(S(=O)(=O)c2ccc(F)cc2)n1` reads > 4 mM (inactive).
Regarding `O=C1CSC(=Nc2ccccc2)N1`, the Kd was > 4 mM (inactive).
With `O=C1CSC(=NC(=O)c2ccccc2)N1`, the Kd is > 4 mM (inactive).
For `Cn1cnc2cc(NC(=O)c3ccco3)ccc21`, the Kd was > 4 mM (inactive).
On to `O=C1c2ccncc2C(=O)N1CNc1ccccn1`, for which the Kd is > 4 mM (inactive).
As to `Cn1c(CNc2ccccc2)cc(=O)n(C)c1=O`, the Kd was > 4 mM (inactive).
With `Cc1cc(O)c(NC(=O)c2ccco2)cc1C`, the Kd is > 4 mM (inactive).
Take `O=C(O)CCc1nc2ccccc2[nH]c1=O`: the Kd is > 4 mM (inactive).
With `CCNC(=O)CC[C@H](N)C(=O)O` the figure was > 4 mM (inactive); with `NC(=S)NC1CCS(=O)(=O)C1` (stereo unspecified), > 4 mM (inactive).
With `Cc1oc(-c2ccccc2)nc1CCO` the figure was > 4 mM (inactive); with `O=c1cc(-c2cc(O)c(O)c(O)c2)oc2cc(O)cc(O)c12`, > 4 mM (inactive).
Take `COc1ccc(-c2cn[nH]c2N)c(OC)c1`: the Kd was > 4 mM (inactive).
For the compound `O=C(O)c1cc(F)cc2c1OCOC2`, the Kd is > 4 mM (inactive).
As to `CC(=O)c1cc(C)ccc1O`, the Kd was > 4 mM (inactive).
On to `CCc1nnsc1C(=O)Nc1nccs1`, for which the Kd is > 4 mM (inactive).
The result for `Cc1cc(-c2ccc(Cl)cc2)n2nc(N)nc2n1` reads > 4 mM (inactive); that for `NC1C2CC3CC1CC(O)(C3)C2` (stereo unspecified), > 4 mM (inactive).
The result for `COc1cccc(OC)c1C(=O)N1CCOCC1` reads > 4 mM (inactive); that for `CC1=C(C(N)=O)C(c2ccccc2)NC(=O)N1` (stereo unspecified), > 4 mM (inactive).
The result for `c1ccc(-c2csc(Nc3cccnc3)n2)nc1` reads > 4 mM (inactive).
For `NC(=O)CSc1nnc2ccc3ccccc3n12`, the Kd is > 4 mM (inactive).
Take `O=c1[nH]cnc2c1nnn2Cc1ccccc1`: the Kd is > 4 mM (inactive).
With `CC(NC(=O)c1ccco1)c1ccc2c(c1)OCCO2` (stereo unspecified) the figure was > 4 mM (inactive); with `CC1Cc2nc(SCC(N)=O)n(C)c(=O)c2S1` (stereo unspecified), > 4 mM (inactive).
Take `COc1ccccc1NC(=O)c1ccc(C)s1`: the Kd is > 4 mM (inactive).
With `Cc1cc(C)n(-c2cccc3cccnc23)n1` the figure was > 4 mM (inactive); with `Cc1ccc2c(c1)CCCN2C(=O)c1ccncc1`, > 4 mM (inactive).
With `Cc1scc(C(=O)Nn2cnnc2)c1-c1ccccc1` the figure was > 4 mM (inactive).
With `c1ccc2nc3c(nc2c1)CCc1nonc1-3` the figure was > 4 mM (inactive).
Consider `COC(=O)[C@H]1[C@H]2C[C@H]3c4[nH]c5ccccc5c4CCN3C[C@H]2CC[C@@H]1O`, for which the Kd was > 4 mM (inactive).
For the compound `Nc1cc(=O)[nH]c(=S)n1-c1ccc(F)cc1`, the Kd is > 4 mM (inactive).
Turning to `C=CCc1ccc2c(c1)OCO2`, the Kd was > 4 mM (inactive).
Regarding `CC(C)(C)Cc1nc(-c2ccccn2)no1`, the Kd was > 4 mM (inactive).
On to `CC(=O)N1CCC(NC2CCCCCC2)CC1`, for which the Kd was > 4 mM (inactive).
In the case of `Cc1[nH]c2ccccc2c1C(=O)CSc1ncn[nH]1`, the Kd is > 4 mM (inactive).
In the case of `Cc1nn(CC(=O)Nc2ccccc2)c(=O)c2ccccc12`, the Kd is > 4 mM (inactive).
`Nc1cccc(S(N)(=O)=O)c1`: the Kd was > 4 mM (inactive).
Take `O=C1CCC([N+](=O)[O-])C(c2ccccc2F)N1` (stereo unspecified): the Kd was > 4 mM (inactive).
With `NC1CS(=O)(=O)CC1O` (stereo unspecified) the figure was > 4 mM (inactive); with `CCCCCCCCCCCCCCC(C(=O)OC)C(O)(CC(=O)OC)C(=O)OC` (stereo unspecified), > 4 mM (inactive); with `C=CCc1ccc(O)c(OC)c1`, > 4 mM (inactive).
As to `c1csc(-c2nn[nH]n2)c1`, the Kd is > 4 mM (inactive).
As to `COc1ccc2c(Cl)c(C(=O)N3CCOCC3)sc2c1`, the Kd result was “inactive”.
As for `O=C(NCc1ccc2c(c1)OCO2)c1cccs1`, the Kd is > 4 mM (inactive).
In the case of `COc1c(-c2coc3cc4c(cc3c2=O)CC(OC(C)=O)C(C)(C)O4)ccc2c1C=CC(C)(C)O2` (stereo unspecified), the Kd was > 4 mM (inactive).
With `CC12CN([N+](=O)[O-])C3(C(N)=O)CC1CCC23C` (stereo unspecified) the figure was > 4 mM (inactive); with `O=C(NC1CC1)c1ccccc1[N+](=O)[O-]`, > 4 mM (inactive); with `O=C(Cc1c(F)cccc1Cl)Nc1ccon1`, > 4 mM (inactive).
For the compound `O=C(c1ccco1)N1CCN(Cc2cccc(F)c2)CC1`, the Kd was > 4 mM (inactive).
With `Cn1ccc(C(=O)NC(=S)NN2CCOCC2)n1`, the Kd is > 4 mM (inactive).
On to `CC(=O)Oc1c(C)cc(O)c2ccccc12`, for which the Kd was > 4 mM (inactive).
As to `COc1ccc(O)c(-c2cn[nH]c2-c2cccs2)c1`, the Kd was > 4 mM (inactive).
As for `COc1ccc2[nH]cc(CN(C)C)c2c1`, the Kd was > 4 mM (inactive).
Take `O=S1(=O)CCC(Nc2ccccc2)C1` (stereo unspecified): the Kd is > 4 mM (inactive).
With `COc1ccc(Cl)cc1NC(=O)C(N)=O` the figure was > 4 mM (inactive); with `NCc1ccccc1N1CCCCC1`, > 4 mM (inactive); with `COC(=O)Nc1nnc(-c2ccncc2)s1`, > 4 mM (inactive).
As to `CC[C@@]1(O)C[C@H](O)c2c(cc3c(c2O)C(=O)c2c(O)ccc(O)c2C3=O)[C@H]1C(=O)OC`, the Kd was > 4 mM (inactive).
Consider `C/C=C/C=N/NC(=O)c1ccc(=O)n(C)c1`, for which the Kd was > 4 mM (inactive).
For `CCOC(=O)c1snnc1-c1ccccc1`, the Kd is > 4 mM (inactive).
With `O=C1N/C(=N\c2ccccn2)SC1Cc1ccccc1` (stereo unspecified) the figure was > 4 mM (inactive).
With `O=c1c2ccccc2nc(-c2ccco2)n1-c1nccs1` the figure was > 4 mM (inactive); with `Nc1ccc2c(c1)OCCO2`, > 4 mM (inactive).
As to `O=C(O)c1ccc(-c2cccs2)cc1`, the Kd was > 4 mM (inactive).
With `Cc1ccc(Cl)cc1NS(=O)(=O)N1CCCCC1` the entry was “inactive”.

The values above are taken from PubChem BioAssay AID608 (Sanford-Burnham Center for Chemical Genomics, 2007).
